Assays:
[1] = tested on: transglutaminases present in the granular layer of the human epidermis; experiment: In situ binding assay of biotinylated polypeptides on cryosections of human abdominal skin; format: biochemical; details: 100 μM; for marking of the contour of the granular keratinocytes (polypeptide bound to cornified envelopes): 5 mM CaCl2, 2 h at room temperature, confocal microscope; for marking of the granular keratinocytes, negative control: 100 mM EDTA, absence of calcium
Experimental: To determine what region of the LCE6A protein is necessary for binding by the transglutaminases, the applicant arranged for the company MilleGen to synthesize various polypeptides, biotinylated at their N-terminal end, with a length of 9 to 13 amino acids, corresponding to different regions of the amino acid sequence of LCE6A.
These polypeptides were used in binding assays in situ. Cryosections of human abdominal skin, saturated by incubation in the presence of bovine albumin at 1% in PBS for 30 minutes at room temperature, were brought into contact with 100 mM Tris (pH 7.4) containing 100 μM of biotinylated polypeptide and 5 mM of CaCl2. After incubation for 2 h at room temperature, the reaction is stopped by adding EDTA at 25 mM for 5 minutes. The sections are then incubated in PBS containing 1% of SDS to destroy the noncovalent bonds.
The presence of biotinylated polypeptides bound to the cornified envelopes by the transglutaminases that are present and active in the tissue is detected by incubation of the sections with streptavidin-AlexaFluor555 at 5 μg/ml (Invitrogen) and visualization in the confocal microscope.
A positive control is performed in a similar experiment but by incubating the sections with 100 μM of cadaverine coupled to AlexaFluor555 (Invitrogen) instead of the polypeptides. For the negative controls, the cryosections are incubated with each biotinylated polypeptide or with cadaverine coupled to AlexaFluor555 but incubation is carried out in the presence of 100 mM of EDTA and in the absence of calcium.

[2] = tested on: endogenous transglutaminase; experiment: In vitro crosslinking binding assay with short peptide analogues of LCE6A fragments on human skin cryosections; format: biochemical; details: for labelling of the contour of the granular keratinocytes (peptide crosslinked to cornified envelopes) / labelling of the granular keratinocytes, negative control: 100 μM; for labelling of the contour of the granular keratinocytes (peptide crosslinked to cornified envelopes): 5 mM CaCl2, 2 h at room temperature, fluorescence microscope; for labelling of the granular keratinocytes, negative control: in the presence of EDTA, absence of calcium
Experimental: Protocol: The following short peptides derived from the amino acid sequences PEVQKP of LCE6A (amino-acids 49 to 54 of SEQ ID NO:2), which sequences meet the criteria defined above and are biotinylated at their amino-terminus, were synthesized: PGVQKP (SEQ ID NO: 7), PEGQKP (SEQ ID NO: 8), GEVQKP (SEQ ID No: 9), PEVQKG (SEQ ID No: 10).
These peptides were used at a concentration of 100 μM in in situ binding assays. Cryosections of human abdominal skin, saturated by incubation in the presence of bovine albumin at 1% in PBS for 30 minutes at room temperature, were brought into contact with 100 mM Tris (pH 7.4) containing 100 μM of biotinylated polypeptide and 5 mM of CaCl2). After incubation for 2 h at room temperature, the reaction was stopped by adding EDTA at 25 mM for 20 minutes. The sections were then incubated in PBS containing 1% of SDS to destroy the noncovalent bonds. The presence of biotinylated polypeptides bound to the cornified envelopes by the transglutaminases that are present and active in the tissue was detected by incubation of the sections with streptavidin-AlexaFluor555 at 5 μg/ml (Invitrogen) and visualization in the fluorescence microscope. A positive control was performed in a similar experiment but by incubating the sections with 100 μM of the peptide PEVQKP of LCE6A (amino-acids 49 to 54 of SEQ ID NO: 2). For the negative control, the cryosections were incubated with each biotinylated polypeptide but incubation was carried out in the presence of 100 mM of EDTA and in the absence of calcium.

EVAKPRRARQALR (Mutated peptide of SEQ ID NO 5) [reference compound]
marking of the contour of the granular keratinocytes (polypeptide bound to cornified envelopes) [1]: does not give any pericellular marking

MSQAKQQSW (Mutated peptide of SEQ ID NO 3) [reference compound]
marking of the contour of the granular keratinocytes (polypeptide bound to cornified envelopes) [1]: does not give any pericellular marking

PEVQKG (Designed peptide based on homology to amino acid residue 49 to 54 from Protein LCE6A)
ability to bind cornified envelopes (conclusion) [2]: possesses the ability to bind cornified envelopes
labelling of the contour of the granular keratinocytes (peptide crosslinked to cornified envelopes) [2]: strong labelling of the contour of the granular keratinocytes
labelling of the granular keratinocytes, negative control [2]: Absence of labelling

PEVQKP (fragment)
labelling of the contour of the granular keratinocytes (peptide crosslinked to cornified envelopes) [2]: labelling of the contour of the granular keratinocytes
labelling of the granular keratinocytes, negative control [2]: Absence of labelling

RPAPPPISGGGYRAR (Control peptide of SEQ ID NO 19) [reference compound]
marking of the contour of the granular keratinocytes (polypeptide bound to cornified envelopes) [1]: does not give any pericellular marking

SEQ ID NO: 3: polypeptide fragment of LCE6A, 9 to 13 amino acids, sequence not printed in the text (MSQQKQQSW; Designed peptide based on homology to amino acid residue 1 to 9 from Protein LCE6A)
marking of the granular keratinocytes, negative control [1]: no marking is obtained

SEQ ID NO: 4: polypeptide fragment of LCE6A, 9 to 13 amino acids, sequence not printed in the text (SSQRPEVQKPR; Designed peptide based on homology to amino acid residue 45 to 55 from Protein LCE6A)
marking of the granular keratinocytes, negative control [1]: no marking is obtained

SEQ ID NO: 5: polypeptide fragment of LCE6A, 9 to 13 amino acids, sequence not printed in the text (EVQKPRRARQKLR; Designed peptide based on homology to amino acid residue 50 to 62 from Protein LCE6A)
marking of the granular keratinocytes, negative control [1]: no marking is obtained
